Results reported in paper PMC5869189 (Frontiers in Immunology, 2018).
Where “and” joins values, the source holds several entries; their conditions need not be identical. Equal values may be shown once.

Key:
[1] = test system: PBMC from healthy, seropositive donors; format: cell-based, human
HLA-DRB1*11:01 = target: T1, HLA-DRB1*11:01 (Homo sapiens, UniProt P01903+P01911, A100R/A169T/A87E/I96F/K41T/L162R/M171V/P40S/Q125H/Q178H/Q39Y/Q99D/R42S/S66Y/T262R/V115G/W38E); format: binding; parameters: reference not given here; settings: 24–72 h at 37°C
T1 construct: Purified HLA-DR heterodimers derived from the relevant EBV B-lymphoblastoid cell lines; endogenous in cells
T1 sequence (P01903 26-254, other chains not shown): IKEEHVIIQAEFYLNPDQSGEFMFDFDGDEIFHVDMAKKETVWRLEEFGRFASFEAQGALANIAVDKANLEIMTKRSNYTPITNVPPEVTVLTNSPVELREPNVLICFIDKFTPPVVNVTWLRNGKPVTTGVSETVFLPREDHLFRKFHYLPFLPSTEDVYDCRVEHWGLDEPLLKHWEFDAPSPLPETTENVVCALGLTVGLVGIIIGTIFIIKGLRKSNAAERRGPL

HLA-DRB1*07 = format: binding, human; parameters: reference not given here; settings: 24–72 h at 37°C
HLA-DRB1*09 = format: binding, human; parameters: reference not given here; settings: 24–72 h at 37°C
HLA-DRB1*15:02 = target: T2, HLA-DRB1*15:02 (Homo sapiens, UniProt P01903+P01911, V115G); format: binding; parameters: reference not given here; settings: 24–72 h at 37°C
T2 construct: Purified HLA-DR heterodimers derived from the relevant EBV B-lymphoblastoid cell lines; endogenous in cells
T2 sequence (P01903 26-254, other chains not shown): as above

HLA-DRB1*04 = format: binding, human; parameters: reference not given here; settings: 24–72 h at 37°C
HLA-DRB1*12:02 = HLA-DRB1*12:02 (Homo sapiens, UniProt P01903+P01911, A100R/A169T/D57E/D86V/F55L/H45Y/I96F/K41T/L162R/M171V/P40S/Q125H/Q178H/Q39Y/Q99D/R42G/S66L/T262R/V114A/V67L/W38E/Y59H/Y61H/Y89S); format: binding; parameters: reference not given here; settings: 24–72 h at 37°C
HLA-DRB1*15:01 = target: T3, HLA-DRB1*15:01 (Homo sapiens, UniProt P01903+P01911); format: binding; parameters: reference not given here; settings: 24–72 h at 37°C
T3 construct: Purified HLA-DR heterodimers derived from the relevant EBV B-lymphoblastoid cell lines; endogenous in cells

[2] = test system: HLA-DQB1*0602 and HLA-DQB1*0302; settings: cited from earlier work
[3] = test system: HLA class-II heterodimers (HLA DRB1*04, 07, 09, 11:01, 12:02, 15:01, 15:02); format: binding, human
[4] = test system: PBMC from melioidosis patients and control donors; format: cell-based, human

Row | Sequence | % Responders [1] | Elispot, Median SFC/10^6 PBMCs of HLA donors [1] | Median SFC/10^6 PBMCs (IFN-g) [1] | HLA binding, relative HLA binding affinity (HLA-DRB1*11:01) | HLA binding, relative HLA binding affinity (HLA-DRB1*07) | HLA binding, relative HLA binding affinity (HLA-DRB1*09) | HLA binding, relative HLA binding affinity (HLA-DRB1*15:02) | HLA binding, relative HLA binding affinity (HLA-DRB1*04) | HLA binding, relative HLA binding affinity (HLA-DRB1*12:02) | HLA binding, relative HLA binding affinity (HLA-DRB1*15:01) | Presentation through HLA-DQ [2] | HLA class-II binding across the panel (in words) [3] | IFNγ response, acute septicemic melioidosis compared with recovered individuals (Figure 3) [4] | IFNγ response compared between cohorts (Figure 2) [4]
1 | RGVAANRLSAQGMGASNPIA [BPSL0999_P18] | 93.6% and 94% | 617 SFC/10^6 PBMCs and 415 SFC/10^6 PBMCs and 456 SFC/10^6 PBMCs and 487 SFC/10^6 PBMCs and 634 SFC/10^6 PBMCs and 616 SFC/10^6 PBMCs and 441 SFC/10^6 PBMCs | 375 | 72 | 11 | 367 | >3 333 | 82 | 14 | 157 | – | – | – | –
2 | NQNPQITASVVGYTDSTGSA [BPSL0999_P14] | 95.7% and 96% | 583 SFC/10^6 PBMCs and 417 SFC/10^6 PBMCs and 601 SFC/10^6 PBMCs and 460 SFC/10^6 PBMCs and 567 SFC/10^6 PBMCs and 588 SFC/10^6 PBMCs and 489 SFC/10^6 PBMCs | 373 | 189 | 30.2 | 37 | 542 | 33 | >136 | 1 | – | – | – | –
3 | KDFTFVCPTEIVEFAKLAKQ [BPSL2096_P6] | 82.4% and 82% | – | 333 | 43 | 0.3 | 18 | 222 | 9 | 25 | 7 | can be presented also through HLA-DQB1*0602 and HLA-DQB1*0302 | moderate to high affinity | lower during acute disease | –
4 | VVVATGYTDRIGSDKYNDRL [BPSL2522_P14] | 100% | – | 290 | >278 | >336 | >689 | 1 826 | >145 | >136 | 10 | – | – | lower during acute disease | lower in recovered patients than in seropositive healthy donors
5 | PAGKQKLDELAAKIQGMNVE [BPSL2522_P12] | 97.1% and 97% | – | 308 | 77 | 333 | >689 | >3 333 | >145 | 40 | >270 | – | – | – | –
6 | AAKIQGMNVEVVVATGYTDR [BPSL2522_P13] | 100% | 362 SFC/10^6 PBMCs and 488 SFC/10^6 PBMCs and 487 SFC/10^6 PBMCs and 578 SFC/10^6 PBMCs and 351 SFC/10^6 PBMCs and 534 SFC/10^6 PBMCs | 291 | 23 | 11 | 42 | 667 | – | 5 | 5 | – | – | – | –
7 | AAQKAIDAAKSQVANDNAVA [BPSS1531_P40] | 85.7% | – | 198 | – | – | – | – | – | – | – | – | – | – | –
8 | LAGVQVVQSNGNYSVFLSGG [BPSL0280_P22] | 93.1% | – | 464 | – | – | – | – | – | – | – | – | – | – | –
9 | LERLHTDYAWGGWNVVIGEP [BPSS1599_P14] | 95.8% | – | 157 | – | – | – | – | – | – | – | – | – | – | –
10 | QRFVGGLFWQSLSRRNELRA [BPSS1599_P2] | 81.3% | – | 137 | – | – | – | – | – | – | – | – | – | – | –
11 | VLPGVDEELADRELGYDHDD [BPSS0530_P29] | 93.0% | – | 234 | – | – | – | – | – | – | – | – | – | – | –
12 | APDRRVEVEVVGTQEVQKTT [BPSL2522_P21] | 100.0% | – | 273 | – | – | – | – | – | – | – | – | – | – | –
